Test results: ChEMBL document CHEMBL3045520, “Comparative three-dimensional quantitative structure-activity relationship study of safeners and herbicides” (J Agric Food Chem, 2000)

Experiment: Binding affinity to SafBP receptor in Zea mays (maize) seedlings by [3H]Saf(R-29148) binding assay

Row | SMILES | IC50 [nM]
1 | CC1(C(Cl)Cl)OCCO1 | 4400
2 | C=CCN(CC=C)C(=O)C(Cl)Cl [DICHLORMID] | 10
3 | CC1CN(C(=O)C(Cl)Cl)C(C)(C)O1 (centres undefined) | 120
4 | O=C(C(Cl)Cl)N1CCOC12CCCCC2 | 6000
